Like-named read-outs stand apart in the source and are kept apart here.
Test system: effect of IL-1β on SEAP reporter gene activity in selected NIH3T3 cells
Assay: IL-1β-induced SEAP reporter gene activity in selected NIH3T3 cell clones
Type: cell-based
Settings: IL-1β-stimulated selected NIH3T3 cells, read-out: IC50 value of the inhibition of SEAP activity

| Compound | IC50 (Mus musculus) [nM] | IC50 [nM] |
| --- | --- | --- |
| Cc1ccc(-c2cc(C(F)(F)F)nn2-c2ccc(S(N)(=O)=O)cc2)cc1 [celecoxib] | ~200 |  |
| COc1cccc(-c2cc(=O)c3ccccc3o2)c1N [PD98059] |  | ~1000 |
| N#CC(=C(/N)Sc1ccccc1N)/C(C#N)=C(\N)Sc1ccccc1N [U0126] | ~1000 |  |

From patent US20030003519A1, “Compositions and methods for the discovery and selection of biological information” (priority 2000, published 2003)
